Results published in PMC11435058, “Synthesis of New Thiazole-Privileged Chalcones as Tubulin Polymerization Inhibitors with Potential Anticancer Activities” (Pharmaceuticals, 2024).
Read-outs that look alike come from different tables or passages of the source.

How the values were obtained:
[1] = tested on: OVCAR-5; experiment: NCI-60 anticancer screen (SRB; single dose and five doses); conditions: Homo sapiens
[2] = tested on: HT29; experiment: as above; conditions: Homo sapiens
[3] = tested on: PC-3; experiment: as above; conditions: Homo sapiens
[4] = tested on: A498; experiment: as above; conditions: Homo sapiens
[5] = tested on: DU-145; experiment: as above; conditions: Homo sapiens
[6] = tested on: COLO 205; experiment: as above; conditions: Homo sapiens
[7] = tested on: LOX IMVI; experiment: as above; conditions: Homo sapiens
[8] = tested on: K-562; experiment: as above; conditions: Homo sapiens
[9] = tested on: HCT-116; experiment: as above; conditions: Homo sapiens
[10] = tested on: T-47D; experiment: as above; conditions: Homo sapiens, T47D
[11] = tested on: SK-MEL-28; experiment: as above; conditions: Homo sapiens
[12] = tested on: EKVX; experiment: as above; conditions: Homo sapiens
[13] = tested on: UACC-257; experiment: as above; conditions: Homo sapiens
[14] = tested on: NCI/ADR-RES; experiment: as above; conditions: Homo sapiens
[15] = tested on: MCF7; experiment: as above; conditions: Homo sapiens
[16] = tested on: 60 human tumor cell lines panel; experiment: NCI-60 anticancer screen, whole panel (means and ranges over the cell lines); type: cell-based; conditions: Homo sapiens, 48 h, dose of 10 μM
[17] = tested on: KM12; experiment: NCI-60 anticancer screen (SRB; single dose and five doses); conditions: Homo sapiens
[18] = tested on: MOLT-4; experiment: as above; conditions: Homo sapiens
[19] = tested on: SK-MEL-5; experiment: as above; conditions: Homo sapiens
[20] = tested on: HOP-92; experiment: as above; conditions: Homo sapiens
[21] = tested on: HL-60(TB); experiment: as above; conditions: Homo sapiens
[22] = tested on: MDA-MB-468; experiment: as above; type: cell-based, human
How it was run: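 NCI panel of about 60 human tumor cell lines treated with compound at a single concentration (10μM) for 48 h. Growth measured by SRB protein staining and expressed as percent growth of treated versus untreated control cells.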

[23] = tested on: CCRF-CEM; experiment: NCI-60 anticancer screen (SRB; single dose 10 μM and five doses); conditions: Homo sapiens
[24] = tested on: ACHN; experiment: NCI-60 anticancer screen (SRB; single dose and five doses); conditions: Homo sapiens
[25] = tested on: UACC-62; experiment: as above; conditions: Homo sapiens
[26] = 48 h, read-out: Growth Percentage

COc1cc(/C=C/C(=O)c2sc(=S)[nH]c2C)cc(OC)c1OC [2p, (E)-1-(4-Methyl-2-Thioxo-2,3-Dihydrothiazol-5-yl)-3-(3,4,5-Trimethoxyphenyl)Prop-2-En-1-One]
GI50 ([1]; OVCAR-5): 3.8 µM
IC50 ([1]; OVCAR-5): 12.3 µM
activity at 10 µM ([1]; OVCAR-5, 48 h, read-out: Growth Percentage): 6.56%
CC50 ([1]; OVCAR-5, read-out: LC50): 43.6 µM
IC (TGI) ([1]; OVCAR-5, read-out: TGI): 15.1 µM
GI50 ([2]; HT-29): 3.47 µM
IC50 ([2]; HT-29): 4.57 µM
activity at 10 µM ([2]; HT-29, 48 h, read-out: Growth Percentage): 40.1%
CC50 ([2]; HT-29, read-out: LC50): > 100 µM
IC (TGI) ([2]; HT-29, read-out: TGI): 13.5 µM
GI50 ([3]; PC-3): 5.01 µM
IC50 ([3]; PC-3): 8.91 µM
activity at 10 µM ([3]; PC-3, 48 h, read-out: Growth Percentage): 35.7%
CC50 ([3]; PC-3, read-out: LC50): > 100 µM
IC (TGI) ([3]; PC-3, read-out: TGI): 41.7 µM
GI50 ([4]; A498): 11.5 µM
IC50 ([4]; A498): 43.6 µM
activity at 10 µM ([4]; A498, 48 h, read-out: Growth Percentage, A498, dose of 10 μM): 96.5%
CC50 ([4]; A498, read-out: LC50): > 100 µM
IC (TGI) ([4]; A498, read-out: TGI): 34.7 µM
GI50 ([5]; DU-145): 3.24 µM
IC50 ([5]; DU-145): 5.75 µM
activity at 10 µM ([5]; DU-145, 48 h, read-out: Growth Percentage): 12.9%
CC50 ([5]; DU-145, read-out: LC50): 69.2 µM
IC (TGI) ([5]; DU-145, read-out: TGI): 15.5 µM
GI50 ([6]; COLO 205): 16.2 µM
IC50 ([6]; COLO 205): 28.8 µM
activity at 10 µM ([6]; COLO 205, 48 h, read-out: Growth Percentage): 81.7%
CC50 ([6]; COLO 205, read-out: LC50): 70.8 µM
IC (TGI) ([6]; COLO 205, read-out: TGI): 33.9 µM
GI50 [7]: 3.24 µM
IC50 [7]: 4.47 µM
activity at 10 µM [7, 26]: 17.1%
CC50 ([7]; read-out: LC50): 38.9 µM
IC (TGI) ([7]; read-out: TGI): 12 µM
GI50 ([8]; K562): 3.02 µM
IC50 ([8]; K562): 3.72 µM
activity at 10 µM ([8]; K562, 48 h, read-out: Growth Percentage): 8.21%
CC50 ([8]; K562, read-out: LC50): > 100 µM
IC (TGI) ([8]; K562, read-out: TGI): > 100 µM
GI50 ([9]; HCT-116): 3.16 µM
IC50 ([9]; HCT-116): 3.63 µM
activity at 10 µM ([9]; HCT-116, 48 h, read-out: Growth Percentage): 6.81%
CC50 ([9]; HCT-116, read-out: LC50): 69.2 µM
IC (TGI) ([9]; HCT-116, read-out: TGI): 14.4 µM
GI50 [10]: 2.19 µM
IC50 [10]: 7.24 µM
activity at 10 µM [10, 26]: -1.59%
CC50 ([10]; read-out: LC50): > 100 µM
IC (TGI) ([10]; read-out: TGI): 13.2 µM
GI50 ([11]; SK-MEL-28): 4.07 µM
IC50 ([11]; SK-MEL-28): 9.12 µM
activity at 10 µM ([11]; SK-MEL-28, 48 h, read-out: Growth Percentage): 24.2%
CC50 ([11]; SK-MEL-28, read-out: LC50): 57.5 µM
IC (TGI) ([11]; SK-MEL-28, read-out: TGI): 17.4 µM
GI50 [12]: 4.07 µM
IC50 [12]: 11 µM
activity at 10 µM [12, 26]: 23.4%
CC50 ([12]; read-out: LC50): > 100 µM
IC (TGI) ([12]; read-out: TGI): 22.9 µM
GI50 ([13]; UACC-257): 5.13 µM
IC50 ([13]; UACC-257): 18.6 µM
activity at 10 µM ([13]; UACC-257, 48 h, read-out: Growth Percentage): 42.1%
CC50 ([13]; UACC-257, read-out: LC50): 75.9 µM
IC (TGI) ([13]; UACC-257, read-out: TGI): 21.9 µM
GI50 [14]: 2.4 µM
IC50 [14]: 4.37 µM
activity at 10 µM [14, 26]: 0.58%
CC50 ([14]; read-out: LC50): > 100 µM
IC (TGI) ([14]; read-out: TGI): 7.41 µM
GI50 ([15]; MCF7): 3.02 µM
IC50 ([15]; MCF7): 4.27 µM
activity at 10 µM ([15]; MCF7, 48 h, read-out: Growth Percentage): 9.35%
CC50 ([15]; MCF7, read-out: LC50): 45.7 µM
IC (TGI) ([15]; MCF7, read-out: TGI): 10.7 µM
activity at 10 µM ([16]; mean over the tested cell lines, read-out: Mean growth percentage): 14.9%
activity at 10 µM ([16]; range over the cell lines, read-out: growth percentages against most of the tested cells (lowest to highest)): -64.6 to 96.5%
GI50 ([17]; KM12): 3.24 µM
IC50 ([17]; KM12): 6.46 µM
activity at 10 µM ([17]; KM12, 48 h, read-out: Growth Percentage): 9.52%
CC50 ([17]; KM12, read-out: LC50): 42.7 µM
IC (TGI) ([17]; KM12, read-out: TGI): 13.8 µM
GI50 ([18]; MOLT-4): 2.88 µM
IC50 ([18]; MOLT-4): 4.17 µM
activity at 10 µM ([18]; MOLT-4, 48 h, read-out: Growth Percentage): 9.11%
CC50 ([18]; MOLT-4, read-out: LC50): > 100 µM
IC (TGI) ([18]; MOLT-4, read-out: TGI): 22.9 µM
GI50 ([19]; SK-MEL-5): 1.58 µM
IC50 ([19]; SK-MEL-5): 3.31 µM
activity at 10 µM ([19]; SK-MEL-5, 48 h, read-out: Growth Percentage): -64.6%
CC50 ([19]; SK-MEL-5, read-out: LC50): 10 µM
IC (TGI) ([19]; SK-MEL-5, read-out: TGI): 3.98 µM
GI50 ([20]; HOP-92): 2.95 µM
IC50 ([20]; HOP-92): 44.7 µM
activity at 10 µM ([20]; HOP-92, 48 h, read-out: Growth Percentage): 16.4%
CC50 ([20]; HOP-92, read-out: LC50): > 100 µM
IC (TGI) ([20]; HOP-92, read-out: TGI): 19.9 µM
GI50 ([21]; HL-60): 2.57 µM
IC50 ([21]; HL-60): 3.89 µM
activity at 10 µM ([21]; HL-60, 48 h, read-out: Growth Percentage): 3.95%
CC50 ([21]; HL-60, read-out: LC50): > 100 µM
IC (TGI) ([21]; HL-60, read-out: TGI): 11.2 µM
activity at 10 µM ([22]; Homo sapiens, 48 h, MDA-MB-468, dose of 10 μM, read-out: Growth Percentage): 3.79%
IC50 ([22]; Homo sapiens, MDA-MB-468, MDA-MB-468, Breast Cancer, five dose): 5.75 µM
GI50 ([22]; Homo sapiens, MDA-MB-468, Breast Cancer, five dose): 1.55 µM
CC50 ([22]; Homo sapiens, MDA-MB-468, Breast Cancer, five dose, read-out: LC50 (the source's name)): 17.8 µM
TGI ([22]; MDA-MB-468, Breast Cancer, five dose): 4.47 µM
GI50 [23]: 2.45 µM
activity at 10 µM [23, 26]: 4.92%
IC50 ([23]; five-dose, Leukemia CCRF-CEM): 3.55 µM
IC (TGI) ([23]; read-out: TGI): 8.71 µM
GI50 [24]: 3.89 µM
IC50 [24]: 6.46 µM
activity at 10 µM [24, 26]: 19.6%
CC50 ([24]; read-out: LC50): 55 µM
IC (TGI) ([24]; read-out: TGI): 16.6 µM
GI50 ([25]; UACC-62): 2.82 µM
IC50 ([25]; UACC-62): 5.37 µM
activity at 10 µM ([25]; UACC-62, 48 h, read-out: Growth Percentage): -3.11%
IC (TGI) ([25]; UACC-62, read-out: TGI): 12.3 µM
